System: E. coli, Streptococcus sp. and Proteus sp. isolated from the xenic culture
Test: Antibiotic susceptibility tests (antibiotic discs) with bacterial strains isolated from the xenic culture
Details: strains isolated from original xenic culture (E. coli, Streptococcus sp., Proteus sp.)

Row | Compound | susceptibility tests of the bacterial strains
1 | neomycin | resistant to most antibiotics, except meropenem, neomycin and rifampicin
2 | C[C@@H](O)[C@H]1C(=O)N2C(C(=O)O)=C(S[C@@H]3CN[C@H](C(=O)N(C)C)C3)[C@H](C)[C@H]12 [meropenem] | resistant to most antibiotics, except meropenem, neomycin and rifampicin
